Assay results from patent publication US9066517B2, “Pest control agents for honeybee parasitic pests, and pest control method for honeybee parasitic pests using the pest control agents” (MEIJI SEIKA PHARMA CO., LTD., priority 2013, dated 2015).

What was measured:
Assay type in all cases: in vivo
Apis mellifera [1] = assay: Test Example 2: mortality of honeybees after dipping the abdomens; conditions: rate 10 ppm, abdomens dipped into acetone solution, adult Apis mellifera
Excerpt: (§1) After anesthesized with carbonic acid gas, adults of Apis mellifera collected from a hive were grouped in test cages such that there were 10 to 20 heads per cage. Thereafter, the Apis mellifera were subjected to a chemical treatment by dipping the abdomens into an acetone solution of the compound according to the present invention at predetermined concentrations. After the Apis mellifera air-dried, the recovery of the Apis mellifera from the anesthesia was confirmed. Then, the cages were lidded to leave the Apis mellifera to stand in a thermostatic chamber under dark at 25° C. Note that 50% sucrose water absorbed to absorbent cotton was provided as a bait during the test period.
(§2) The number of Apis mellifera survived at 72 hours after the chemical treatment as well as the numbers of Varroa destructor parasitizing the Apis mellifera before the chemical treatment and at 72 hours after the chemical treatment were examined. The mortality and the parasitism rate were calculated by the following equations. The test was conducted in duplicate. Mortality(%)={((100−survival rate in chemical treated plot)−(100−survival rate in acetone treated plot))/(100−mortalityin acetone treated plot)}×100 Parasitism rate(%)=(number of heads of honeybees parasitized by Varroa destructor/number of honeybees survived)×100

Varroa destructor [2] = assay: Test Example 1: pest control test of Varroa destructor, preventive value; conditions: application dose 10 μg, Varroa destructor on adult Apis mellifera, 48 hours after treatment
Description: (§3) After anesthesized with carbonic acid gas, adults of Apis mellifera infected with Varroa destructor were subjected to a chemical treatment by applying the abdomens with an acetone solution of the compound according to the present invention at predetermined concentrations using a micro applicator. After the treatment, Apis mellifera were transferred into a plastic case and left to stand in a thermostatic chamber under dark at 25° C. During the test period, 50% sucrose water absorbed to absorbent cotton was provided as a bait.
(§4) Forty eight hours after the chemical treatment, the number of Apis mellifera survived and the number of parasitic Varroa destructor were examined. The mortality of the honeybees and the preventive value against Varroa destructor were calculated by the following equations. Mortality(%)={((100−survival rate in chemical treated plot)−(100−survival rate in acetone treated plot))/(100−mortality in acetone treated plot)}×100 Preventive value={(parasitism rate in untreated plot−parasitism rate in chemical treated plot)/(parasitism rate in untreated plot)}×100

Varroa destructor [3] = assay: Test Example 2: pest control test of Varroa destructor, parasitism rate; conditions: for Parasitism rate before treatment (%): rate 10 ppm group, before chemical treatment (baseline); for Parasitism rate at 72 hours after treatment (%) / Change in parasitism rate (%)*: rate 10 ppm; for Parasitism rate at 72 hours after treatment (%): abdomens dipped; for Change in parasitism rate (%)*: {100 − (parasitism rate at 72 hours after treatment/parasitism rate before treatment) × 100}
Excerpt: as §1, §2

Apis mellifera [4] = assay: Test Example 1: mortality of honeybees after topical application (micro applicator); conditions: acetone solution applied to abdomens of adult Apis mellifera infected with Varroa destructor, 48 hours after treatment
Description: as §3, §4

SMILES	Mortality at 72 hours after treatment (%) (Apis mellifera [1])	Preventive value (Varroa destructor [2])	Parasitism rate before treatment (%) (Varroa destructor [3])	Parasitism rate at 72 hours after treatment (%) (Varroa destructor [3])	Change in parasitism rate (%)* (Varroa destructor [3]) [%]	Mortality (%) (Apis mellifera [4]; application dose 10 μg)	Mortality (%) (Apis mellifera [4]; application dose 5 μg)
O=C(N=c1ccccn1Cc1ccc(Cl)nc1)C(F)(F)F [Compound P212, N-[1-((6-chloropyridin-3-yl)methyl)pyridin-2(1H)-ylidene]-2,2,2-trifluoroacetamide]	0	100	17	10	−41	0	
FC(F)(F)C(=S)N=c1ccccn1Cc1ccc(Cl)nc1 [Compound 1-20, N-[1-((6-chloropyridin-3-yl)methyl)pyridin-2(1H)-ylidene]-2,2,2-trifluoroethanethioamide]	0		51	23	−55		
CC(C)[C@H](Nc1ccc(C(F)(F)F)cc1Cl)C(=O)OC(C#N)c1cccc(Oc2ccccc2)c1 (some centres unmarked) [Fluvalinate, reference compound]							64
